The values that follow come from patent US5348960A, “Imidazo[4,5-b]quinolinyl oxy alkyl tetrazolyl piperidine derivatives” (Bristol-Myers Squibb Company, priority 1993, dated 1994).

What is called IC50 is the concentration that inhibits the measured activity by half. The term solubility denotes the dissolved amount per volume that the medium holds.

≈ marks a conversion by molar mass, not a printed value. Counter-ions that a name gives are not always drawn.

For data set [1], the system named is ADP-induced aggregation of human blood platelets. Nature of the data set: cells. Conditions: Platelet, read-out: IC50 vs ADP in human PRP. The format is cell-based. On the procedure: The aggregometer method of Born, C. V. R., J. Physiol., (London), 162, 67-68, (1962) as modified by Mustard, J. F., et al., J. Lab. Clin. Med., 64, 548-599, (1964) was used to assess the in vitro activity of the various compounds as to the inhibition of adenosine diphosphate (ADP) and collagen-induced platelet aggregation. The human volunteer donor's arm is cleansed with 70% ethyl alcohol. A sterile 20 ml syringe and needle are used to withdraw 20 ml of blood. The blood is immediately added to a test tube containing 3.8% sodium citrate to prevent clotting (1 part citrate to 9 parts blood).
Platelet rich plasma (PRP) was separated by centrifugation for 10 minutes at 1000 rpm (140xg) from citrated (3.8%) human blood. All glassware used for preparation of PRP is silicon treated. ADP in final concentration of 0.5 μg/mL or 0.05 mL of a collagen suspension prepared according to the method described by Evans, G., et al., J. Exp. Med., 128, 877-894, (1968) was used to induce aggregation. The various compounds tested were dissolved in dimethylsulfoxide (DMSO) so that 5 μl added to the platelet rich plasma would yield the desired test concentration. Vehicle control trials were done and compared with aggregation induced in platelet rich plasma containing various concentrations of the test compounds. Dose response curves were obtained and Inhibitor Concentration (IC50) values calculated.
The target compounds were evaluated as inhibitors of ADP-induced aggregation of human blood platelets in platelet-rich-plasma (PRP) in vitro. The test compounds were incubated at about 37° C. in PRP for about 3 minutes prior to the addition of sufficient ADP to provide a final ADP concentration of 5.86 μM.

Data set [2] is described as follows: aqueous solubility. The format is physicochemical. Particulars: water, dihydrochloride salts.

For the molecule `CCCC(CCC)CN1CCC(n2nnnc2CCCOc2ccc3nc4[nH]c(=O)[nH]c4cc3c2)CC1` [Cmpd 12j, [5-[3-(2,3-Dihydro-2-oxo-1H-imidazo [4,5-b]quinolin-7-yloxy)propyl]-1H-tetrazol-1-yl]-1-(2-propylpent-1-yl) piperidine dihydrochloride], in data set [1], the IC50 was found to be 0.048 µg/mL. Moreover, in data set [2], the solubility is ~2000 µg/mL.

For `Oc1nc2cc3cc(OCCCCc4nnnn4C4CCN(Cc5ccc(F)cc5)CC4)ccc3[nH]c-2n1` [Cmpd 13c, dihydrochloride], in data set [1], the IC50 stood at 0.031 µg/mL. Further, in data set [2], the solubility is > 5000 µg/mL. Take `Oc1nc2cc3cc(OCCCc4nnnn4C4CCN(CCc5ccccc5)CC4)ccc3[nH]c-2n1` [Cmpd 12g, [5-[3-f 2,3-Dihydro-2-oxo-1H-imidazo[4,5-b]quinolin-7-yloxy)propyl]-1H-tetrazol-1-yl]-1-(2-phenylethyl) piperidine dihydrochloride]: the IC50 in data set [1] was 0.048 µg/mL. Further, in data set [2], the solubility is < 5000 µg/mL. For `CCC(CC)CN1CCC(n2nnnc2CCCOc2ccc3nc4[nH]c(=O)[nH]c4cc3c2)CC1` [Cmpd 12e, [5-[3-(2, 3 -Dihydro-2-oxo-1H-imidazo [4,5-b]quinolin-7-yloxy)propyl]-1l H-tetrazol-1-yl]-1-(2-ethylbut-1-yl) piperidine dihydrochloride], the IC50 in data set [1] came out at 0.007 µg/mL. For the same molecule, the solubility in data set [2] is > 10000 µg/mL. The corresponding values for `Oc1nc2cc3cc(OCCCCc4nnnn4C4CCN(Cc5ccccc5)CC4)ccc3[nH]c-2n1` [Cmpd 13b, dihydrochloride] are 0.018 µg/mL and > 5000 µg/mL.

Turning to `Oc1nc2cc3cc(OCCCc4nnnn4C4CCNCC4)ccc3[nH]c-2n1` [Cmpd 12a, [5-[3-(2,3-Dihydro-2-oxo-1H-imidazo[4,5-b]quinolin-7-yloxy)propyl]-1H-tetrazol-1-yl]piperidine dihydrochloride], the IC50 in data set [1] stood at 5.4 µg/mL. For the same molecule, in data set [2], the solubility is > 20000 µg/mL. The corresponding values for `CC(C)CN1CCC(n2nnnc2CCCCOc2ccc3nc4[nH]c(=O)[nH]c4cc3c2)CC1` [Cmpd 13f, dihydrochloride] are 0.005 µg/mL and > 10000 µg/mL.

Take `Oc1nc2cc3cc(OCCCc4nnnn4C4CCN(CC5CCCCC5)CC4)ccc3[nH]c-2n1` [Cmpd 12d, (Cyclohexylmethyl)-4-[5-[3-(2,3-dihydro-2-oxo-1H-imidazo[4,5-b]quinolin-7-yloxy)propyl]-1H-tetrazol-1-yl]piperidine dihydrochloride]: the IC50 in data set [1] was 0.009 µg/mL. Also, the solubility in data set [2] was > 10000 µg/mL.

As to `Oc1nc2cc3cc(OCCCCc4nnnn4C4CCN(CC5CCCCC5)CC4)ccc3[nH]c-2n1` [Cmpd 13d, dihydrochloride], the IC50 in data set [1] was 0.012 µg/mL. For the same molecule, in data set [2], the solubility was > 5000 µg/mL. As for `CCC(CC)CN1CCC(n2nnnc2CCCCOc2ccc3nc4[nH]c(=O)[nH]c4cc3c2)CC1` [Cmpd 13e, [5-[3-(2,3-Dihydro-2-oxo-1H-imidazo[4,5-b]quinolin-7-yloxy)butyl]-1H-tetrazol-1-yl]-1-(2-ethybut-1-yl) piperidine dihyudrochloride], the IC50 in data set [1] worked out at 0.0068 µg/mL (≈ 0.0138 µM). For the same molecule, in data set [2], the solubility is > 5000 µg/mL. The corresponding values for `Oc1nc2cc3cc(OCCCc4nnnn4C4CCN(Cc5ccccc5)CC4)ccc3[nH]c-2n1` [Cmpd 12b, [5-[3-(2,3-Dihydro-2-oxo-1H-imidazo [4,5-b]quinolin-7-yloxy)propyl]-1H-tetrazol-l-yl]-1-(phenylmethyl) piperidine dihydrochloride] are 0.022 µg/mL and > 10000 µg/mL. Turning to `CCOC(=O)N1CCC(n2nnnc2CCCOc2ccc3nc4[nH]c(=O)[nH]c4cc3c2)CC1` [Cmpd 10a, Ethyl 4-[5-[3-(2,3-dihydro-2-oxo-1H-imidazo[4,5-b]quinolin-7-yloxy)propyl]-1H-tetrazol-1-yl]-1-piperidinecarboxylate], in data set [1], the IC50 is 0.2 µg/mL (≈ 0.429 µM). On the same count and under the same terms, next, `CCOC(=O)N1CCC(n2nnnc2CCCCOc2ccc3nc4[nH]c(=O)[nH]c4cc3c2)CC1` [Cmpd 10b]: 0.05 µg/mL (≈ 0.104 µM). `Oc1nc2cc3cc(OCCCc4nnnn4C4CCN(CC5CCCCO5)CC4)ccc3[nH]c-2n1` (stereo not drawn) [Cmpd 12k, [5-[3-(2,3-Dihydro-2-oxo-1H-imidazo[4,5-b]quinolin-7-yloxy)propyl]-1H-tetrazol-1-yl]-1-[(terahydro-2H-pyran-2-yl)methyl]piperidine dihydrochloride]: in data set [1], the IC50 stood at 0.04 µg/mL. Further, the solubility in data set [2] was > 10000 µg/mL.

For `CC(C)CN1CCC(n2nnnc2CCCOc2ccc3nc4[nH]c(=O)[nH]c4cc3c2)CC1` [Cmpd 12f, [5-[3-(2,3-Dihydro-2-oxo-1H-imidazo[4,5-b]quinolin-7-yloxy)propyl]-1H-tetrazol-1-yl]-1-(2-methylprop-1-yl) piperidine dihydrochloride], the IC50 in data set [1] was 0.005 µg/mL. In addition, the solubility in data set [2] was > 10000 µg/mL. For the molecule `Cl.Cl.O=c1[nH]c2cc3cc(OCCCc4nnnn4C4CCN(CC5CCCCCC5)CC4)ccc3nc2[nH]1` [Cmpd 12i, 1-Cycloheptylmethyl-4-[5-[3-(2,3-dihydro-2-oxo-1H-imidazo[4,5-b]quinolin-7-yl-oxy)propyl]-1H-tetrazol-1-yl]piperidine dihydrochloride], in data set [1], the IC50 was determined as 0.01 µg/mL. Further, the solubility in data set [2] is ~1000 µg/mL. The corresponding values for `Oc1nc2cc3cc(OCCCCc4nnnn4C4CCNCC4)ccc3[nH]c-2n1` [Cmpd 13a, dihydrochloride] are 2.6 µg/mL and ~5000 µg/mL.

On to `Cl.Cl.O=c1[nH]c2cc3cc(OCCCc4nnnn4C4CCN(CC5CCCC5)CC4)ccc3nc2[nH]1` [Cmpd 12h, 1-Cyclopentylmethyl-4-[5-[3-(2,3-dihydro-2-oxo-1H-imidazo[4,5-b]quinolin-7-yloxy)propyl]-1H-tetrazol-1-yl]piperidine dihydrochloride], for which the IC50 in data set [1] worked out at 0.005 µg/mL. Also, in data set [2], the solubility is 2000 to 3000 µg/mL. The corresponding values for `Oc1nc2cc3cc(OCCCc4nnnn4C4CCN(Cc5ccc(F)cc5)CC4)ccc3[nH]c-2n1` [Cmpd 12c, [5-[3-(2,3-Dihydro-2-oxo-1H-imidazo[4,5-b]quinolin-7-yloxy)propyl]-1H-tetrazol-l-yl]-1-[(4-fluorophyl)methyl]piperidine dihydrochloride] are 0.019 µg/mL and > 10000 µg/mL.
